“Also recorded” adds a separate entry of the source.
Assays:
Saccharomyces cerevisiae = experiment: Biochemical and gene expression profiling with pathway analysis of yeast treated with fungicidal drugs; assay type: cell-based; settings: inhibitory dose; three replicate samples per drug; single harvest timepoint
Protocol: An experiment was performed to attempt to characterize four fungicidal drugs: Amphoteracin B, Ketaconazole, Fluconazole, and Posaconazole. Yeast samples (Saccharomyces cerevisiae) were treated with an inhibitory dose of each drug, using three replicate samples per drug, and harvested at a single timepoint. Biochemical profiling and gene expression profiling data were gathered on each yeast sample, and summarized and related to KEGG as described in Example 6.

liver = experiment: Biochemical profiling (LC/MS) of livers from rats dosed with acetaminophen; assay type: in vivo; settings: rat liver
Protocol: Acetaminophen overdose is one of the leading causes of liver failure. In this experiment, rats were dosed with acetaminophen and livers were harvested across a time course. Two doses of acetaminophen were used (50 mg/kg and 1500 mg/kg), as well as a control group that received no acetaminophen. The harvest times were 6, 18, 24, and 48 hours. Three rats (biological replicates) were in each treatment group, wherein a treatment group is defined as each combination of dose and time. […] Still referring to FIG. 2, the information recorded in data tables 221, 223, and 224 could also be recorded in data tables 218 and 219 (time_summary_set, and tissue_summary_set), thus allowing comparison by time or tissue type.
The resulting liver samples were extracted and analyzed by biochemical profiling (BCP) using LC/MS in both positive and negative modes, yielding a biochemical profile containing intensities on more than 100 compounds. Three technical replicates of each rat liver were analyzed. […]
A summary set was created for each treatment group, and the experimental information associated with that treatment group (treatment, dosage, timepoint, baseline of comparison) was recorded in the coherence database. […] Comparing a treated group to a control group created summaries that were recorded in the treatment_summary_set data table (FIG. 2, table 217) of the coherence database schema. […]

| Structure (SMILES) | comparison of pathway perturbations between treatments (Saccharomyces cerevisiae) | timepoint with most perturbed compounds (biochemical profile vs matched control) (liver; 50 mg/kg and 1500 mg/kg, harvest at 6, 18, 24 and 48 hours) | pathway showing the primary metabolic disturbance (liver; 18 hour timepoint, pathway viewing tool (KEGG)) |
| --- | --- | --- | --- |
| OC(Cn1cncn1)(Cn1cncn1)c1ccc(F)cc1F [Fluconazole] | perturbations that were unlike those of Amphoteracin B | – | – |
| CC[C@@H]([C@H](C)O)n1ncn(-c2ccc(N3CCN(c4ccc(OC[C@@H]5CO[C@@](Cn6cncn6)(c6ccc(F)cc6F)C5)cc4)CC3)cc2)c1=O [Posaconazole] | behaved most like Fluconazole; also recorded: perturbations that were unlike those of Amphoteracin B | – | – |
| CC(=O)Nc1ccc(O)cc1 [acetaminophen] | – | more compounds were perturbed at the 18 hour timepoint than any other | nitrogen metabolism pathway was most likely the source of the primary metabolic disturbance |

From US20040260721A1, “Methods and systems for creation of a coherence database” (priority 2003, published 2004)
